# Source: patent US20050214738A1, “Conditional allele system” (priority 2003, published 2005)
# Where a SMILES comes first, the peptide text is derived from it. The star is where a group is joined. Cbz = O=C(OCc1ccccc1)*
# Tests used:
# [1] = biological target: T1, FRB (Homo sapiens, UniProt P42345+P62942); test: SeAP reporter assay, dimerization of FRB-VP16 to FKBP3-GAL4DBD in COS-1 cells; type: cell-based; settings: wild-type FRB(KTW)-VP16; ±95% confidence intervals
# T1 construct: The minimal FRB domain comprises amino acids 2025-2114 of human mTor; expressed in transfected cells; host or cells: COS-1 cells, electroporated with pBJ5-FRBVP, pBJ5-GF3E and pG5IL2SX
# T1 sequence (P42345 2025-2114): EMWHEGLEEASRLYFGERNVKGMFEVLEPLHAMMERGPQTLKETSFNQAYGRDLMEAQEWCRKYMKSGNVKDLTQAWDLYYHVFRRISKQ
# T1 sequence (P62942 whole entry, the tested form may be a part): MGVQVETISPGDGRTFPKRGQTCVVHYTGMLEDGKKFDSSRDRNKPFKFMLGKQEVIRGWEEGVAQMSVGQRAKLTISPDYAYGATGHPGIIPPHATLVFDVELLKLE
# Source text: (§1) Transcription activation by recruitment of chimeric transcriptional activation and DNA binding domains is described. COS-1 cells were electroporated with […] each of the following expression plasmids (Ho, S. N., Biggar, S. R., Spencer, D. M., Schreiber, S. L., and Crabtree, G. R. “Dimeric ligands define a role for transcriptional activation domains in reinitiation.” (1996) Nature 382, 822-826): pG5IL2SX (drives transcription of bacterial secreted alkaline phosphatase (SeAP) through GAL4 DNA binding […] elements), pBJ5-GF3E (which expresses the GAL4 DNA binding domain fused to three copies of human FKBP12), and pBJ5-FRBVP. (which expresses a FRB fusion with the Herpes Simplex Virus VP16 Activation domain) A FRB*-VP16 fusion protein which consists of modified FRB protein fused to the VP16 activation domain was also used selectively. Transfected cells were distributed equally to 96 well plates and were incubated at 37° C. for 24 to 36 hours before media was supplemented with drug in a dilution curve in which each point is represented in quadruplicate. Cells were incubated at 37° C. for an additional 24 hours followed by a 2-hour treatment at 65° C. to inactivate endogenous phosphatases. Each well was supplemented with 100μL of 1 mM methylumbelliferylphosphate dissolved in 2 M diethanolamine buffered to pH 10.0 with carbonate and incubated at 37° C. for 16 hours. Fluorescence was measured with a Fluoroscan (ICN) plate reader at 355 nm transmission and 455 nm emission using Deltasoft software.
# (§2) Drug efficacy was determined in a three-plasmid transcriptional switch reporter assay. ˜106 COS1 cells were coelectroporated with 2 μg of the DNA binding construct pBJ5-Gal4-FKBP(3), 2 μg pBJ5-VP16 (or the relevant mutant FRB) and 2 μg of the Gal4-SeAP reporter. Electroporation details are available upon request. […] SeAP activity was measured by fluorescence with a Spectamax M2 fluorometer (Molecular Devices, Sunnyvale, Calif.) with transmission set at 355 nm and emmission set at 460 nm. Data was analysed with Softmax Pro (Molecular Devices), Microsoft Excel and Prism 3 (GraphPad Software).
# [2] = biological target: T2, FRB* (Homo sapiens, UniProt P42345+P62942, K2095P/T2098L/W2101F); test: SeAP reporter assay, dimerization of FRB*-VP16 to FKBP3-GAL4DBD in COS-1 cells; type: cell-based; settings: FRB*(PLF)-VP16; ±95% confidence intervals
# T2 construct: The minimal FRB domain comprises amino acids 2025-2114 of human mTor; expressed in transfected cells; host or cells: COS-1 cells
# T2 sequence (P42345 2025-2114 K2095P/T2098L/W2101F): as the sequence (P42345 2025-2114) above, with K71P, T74L, W77F counted along it
# T2 sequence (P62942 whole entry, the tested form may be a part): as the sequence (P62942 whole entry, the tested form may be a part) above
# Source text: as §1, §2
# [3] = system: embryos; test: Overt effects on mother and embryos after IP injection of pregnant mice; type: in vivo, mouse; settings: 10 mg/kg/day, similarly injected
# Method: GSK-3β^+/FRB* mice were intercrossed and the date of vaginal plug observation was set as E0.5. At E9.5, the stage of embryonic development was confirmed by ultrasonography (Chang, C. P. et al. “Sonographic Staging of the Developmental Status of Mouse Embryos in Utero.” (2003) Published in Genesis 36, 7-11) and mice were weighed. Drug administration commenced at E10.0. […] 100 μL was immediately injected intraperitoneally (IP) to pregnant females with injections repeated twice more at 12 hour intervals to E11.5 when mice were sacrificed, and embryos and organs were dissected and frozen in […]. Tissues anterior to the embryonic forelimbs of individual embryos were used for preparation of protein extracts with the remainder used to determine the concentration of drug and for genotyping.
# [4] = biological target: GSK-3βFRB* (UniProt P26883+P42345, K2095P/T2098L/W2101F); test: Inducible stabilization of GSK-3βFRB* in knock-in MEFs (Western blot); type: cell-based, mouse; set-up: The minimal FRB domain comprises amino acids 2025-2114 of human mTor; endogenous in cells; host or cells: MEFs from GSK-3β^FRB* knock-in mice (fusion expressed from the targeted endogenous locus); settings: heterozygous MEFs; for GSK-3βFRB* stability when stabilization is reversed with FK506 in presence of protease inhibitor: inhibitor added 30 minutes before FK506, 9 h
# Sequence of GSK-3βFRB* (P42345 2025-2114 K2095P/T2098L/W2101F): as the sequence (P42345 2025-2114) above, with K71P, T74L, W77F counted along it
# Sequence of GSK-3βFRB* (P26883 2-108): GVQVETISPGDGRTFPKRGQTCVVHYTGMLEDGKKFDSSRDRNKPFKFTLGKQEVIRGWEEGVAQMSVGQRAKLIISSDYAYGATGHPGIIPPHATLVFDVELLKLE
# Method: MEFs cell lines were prepared from E14.5-E16.5 embryos of indicated genotypes by eviscerating the embryos in HBSS, treating the remaining tissue with 0.2% collagenase and trypsin, and plating the cells in DMEM containing 10% FCS, antibiotics, and 0.1 mM β-mercaptoethanol. Once established, the MEFs were cultured using standard techniques and treated with various small molecules as indicated.
# Western Blot analysis was carried out using cell lysates prepared in RIPA buffer (10 mM Tris pH 7.2, 150 mM NaCl, 0.1% SDS, 1% Triton X-100, 1% deoxycholate, 5 mM EDTA, protease inhibitor cocktail (Invitrogen Life Technologies)) and then separated using standard SDS/PAGE before being transferred to PVDF (Millipore) using standard Western blotting procedures. The anti-GSK-3β antibody, used at 1:2500, the anti-HSP-90 antibody, 1:2500, and the anti-FKBP12 antibody, 1:2500, were purchased from BD Transduction Labs. The anti-β-catenin antibody, 1:2000, and anti-HSP-70 antibody, 1:1000 were purchased from Santa Cruz Biotechnology. […] In all cases, Western blots were incubated overnight with the appropriate primary antibodies in TBST (10 mM Tris 8.0, 150 mM NaCl, 0.1% Tween-20) containing 10% dry milk, and then washed 3 times with TBST. The blots were subsequently incubated for 30 minutes with HRP-conjugated secondary antibodies from Jackson Immunoresearch, washed 3 more times with TBST, and then developed using standard ECL reagents (Amersham Biosciences) and Kodak XAR film.
# [5] = biological target: T3, FRB*Pax6 (UniProt P26883+P42345, K2095P/T2098L/W2101F); test: Whole embryo culture, inducible stabilization of FRB*Pax6; set-up: species or system mouse
# T3 construct: The minimal FRB domain comprises amino acids 2025-2114 of human mTor; from tissue; host or cells: e13.5 cortical neural cultures (A14) and cultured whole embryos (A15) from Pax6^FRB* knock-in mice; fusion expressed from the targeted endogenous locus
# T3 sequence (P42345 2025-2114 K2095P/T2098L/W2101F): as the sequence (P42345 2025-2114) above, with K71P, T74L, W77F counted along it
# T3 sequence (P26883 2-108): as the sequence (P26883 2-108) above
# Method: Uterine horns were removed from sacrificed mothers to a petri dish containing Hank's Balanced Salt Solution (HBSS), fat was removed and the uterus cut up to isolate embryos. Individual deciduum were carefully removed from the uterus by carefully pulling apart the muscular layers in a fresh petri dish containing HBSS (sometimes supplemented with 2 mg/mL glucose) under a dissecting microscope. Embryos were removed by cutting along the lateral axis of the deciduum with fine forceps taking care not to puncture the embryonic membranes and teasing off the decidual layers overlying the embryo. Embryos were then separated from the remaining decidua at the ectoplacental cone or primitive placenta (depending on the age of the embryo).
# Reichert's membrane was grasped without the underlying visceral yolk sac, carefully torn away from the embryo and trimmed back to the placenta without ripping the yolk sac. […] The bottle rotated slowly in a roller bottle chamber at 37° C. Drugs were added directly to the culture media at the commencement of the culture.
# Embryos were fixed overnight in 4% paraformaldehyde/PBS then dehydrated through a staged ethanol series. Endogenous peroxidases were inactivated with 5% H2O2 for 4 hours in ethanol and the embryos were rehydrated. […] Embryos were washed in block 6 hours with 1 hour changes and incubated overnight at 4° C. with […] anti-mouse secondary. Embryos were washed with PBS+0.1% Triton X-100 4 times for 1 hour and developed with the DAB peroxidase kit from Vector laboratories.
# Embryos were protected with a staged series to 30% sucrose in PBS after fixation in 4% PFA (60 minutes to overnight at 4° C.). Protected embryos were embedded in OCT (VWR) frozen and sectioned on a Leica cryostat to 10 μm. Thin sections were stained according to standard protocols (obtained upon request). Secondary antibodies were purchased from Molecular Probes (Eugene, Oreg.) and primary antibodies to neurofilament, Lim3, Nkx2.2, Pax6, En1, Isl1 were obtained from Dev. Studies. Additional antibodies were from Covance, Zymed or a generous gift of Tadashi Nomura and Noriko Osumi (Sendai, Japan). Immunofluorescence was visualized by confocal microscopy.
# [6] = biological target: T3, FRB*Pax6; test: Stabilization of FRB*Pax6 in cortical neural cultures (Western blot); type: cell-based, mouse; settings: replacement of MaRap after 36 hours; 500 nM after 200 nM MaRap
# Source text: e13.5 embryos were harvested from a Pax6^FRB*/+ intercross and cortical hemispheres isolated from individuals identified by eye and craniofacial morphology and later confirmed by genotype specific PCR. Pia were removed and neocortex dissected from […] in Hank's balanced salt solution (HBSS). Tissue was minced roughly and placed in centrifuge tubes containing HBSS+20% foetal calf serum. Tissue pieces were allowed to settle and the media was replaced first with HBSS+serum then HBSS alone. The tissue was incubated with 0.1% trypsin+2 mM EDTA 10 minutes at 37° C. then the reaction stopped with HBSS+serum. Cells were triturated to a suspension and plated on 24 well plates coated with matrigel in DMEM (high glucose) supplemented with FCS (5%), N2 (GIBCO) and antibiotics.
# Extracts were prepared in RIPA buffer, protein quantified by Bradford Assay (Biorad) and 10 μg of total protein resolved by SDS-PAGE, transferred to PVDF (Millipore) filters and Pax6 or HSP90 identified with specific antibodies (1:1000, Covance and 1:2500 Transduction Laboratories, respectively) incubated 1 hour in TBS+10% nonfat milk. Secondary conjugated to horse radish peroxidase were purchased from Jackson immunochemicals and blots were developed by chemiluminescence (Amersham).
# [7] = system: mutant FRBs; test: SeAP transcriptional switch assay, panel of FRB mutants at 2095, 2098, 2101; type: cell-based, human
# Method: All FRB mutants were prepared by the Quikchange mutagenesis method (Stratagene) using protocols provided by the manufacturer. Briefly, PCR reactions containing the parent plasmid pBJ5-FRB-VP16-HA or pBJ5-FRB*-VP16-HA and overlapping oligonucleotides containing the relevant base changes were performed with Pfu polymerase (Stratagene, San Diego, Calif.). PCR reactions were digested with the methylation sensitive restriction endonuclease Dpn1 to eliminate the parent plasmid and the reaction was transformed in XL10-Gold Ultracompetent E. coli (Stratagene).
# Electroporation details are available upon request. Cells were immediately aliquoted to 2 or 3×96 well plates with flat bottoms. […] Data was analysed with Softmax Pro (Molecular Devices), Microsoft Excel and Prism 3 (GraphPad Software).
compound,measurement,setting,value
C16-(R)-methallylrapamycin [C16-MaRap],EC50,[1],273 ± 13.5 nM
same,EC50,[2],15.9 ± 1.5 nM
"CO[C@H]1C[C@@H]2CC[C@@H](C)[C@@](O)(O2)C(=O)C(=O)N2CCCC[C@H]2C(=O)O[C@H]([C@H](C)C[C@@H]2CC[C@@H](O)[C@H](OC)C2)CC(=O)[C@H](C)/C=C(\C)[C@@H](O)[C@@H](OC)C(=O)[C@H](C)C[C@H](C)/C=C/C=C/C=C/1C [rapamycin, reference compound]",effect on embryos,[3],produced “flat-top” embryos
"CC(=O)N[C@@H](CSC(=O)[C@]1([C@@H](O)C(C)C)NC(=O)[C@H](C)[C@@H]1O)C(=O)O [lactacystin, reference compound]",GSK-3βFRB* stability when stabilization is reversed with FK506 in presence of protease inhibitor,[4],remained stable
"CO[C@H]1C[C@@H](C)C/C(C)=C/[C@@H](CCOC(=O)NCc2ccccc2)C(=O)C[C@H](O)[C@@H](C)[C@@H](/C(C)=C/[C@@H]2CC[C@@H](O)[C@H](OC)C2)OC(=O)[C@@H]2CCCCN2C(=O)C(=O)[C@]2(O)O[C@H]1[C@@H](OC)C[C@H]2C [FK506M, reference compound]",time for GSK-3βFRB* to return to steady state low levels,[4]; 300 nM after 100 nM C20-MaRap 36 h,less than 9 hours
same,differentiation of Lim3-positive somatic motor neurons after transient stabilization,[5]; 24 hours MaRap then replacement with FK506M,fail to differentiate
same,FRB*Pax6 immunoreactivity after transient stabilization,"[5]; 24 hours MaRap then replacement with FK506M (5 μM) 24 hours, e9.5 embryos",loss of most of the FRB*Pax6 immunoreactivity
same,time for stabilized FRB*Pax6 levels to drop to the basal level,[6],≤ 6 h
"CCOC(=O)[C@H]1O[C@@H]1C(=O)N[C@@H](CC(C)C)C(=O)NCCC(C)C [E-64D, reference compound]",GSK-3βFRB* stability when stabilization is reversed with FK506 in presence of protease inhibitor,[4],did not protect
C16-(S)-3-Methylindole rapamycin [C16-iRap],"binding to FRB mutants with Trp 2101 Phe substitution, Leu at 2098","[7]; Phe at 2101, Leu at 2098",fully rescues drug binding
same,"binding to FRB mutants with Trp 2101 Phe substitution, Thr at 2098","[7]; Phe at 2101, Thr at 2098",does not bind
"CO[C@H]1[C@@H](O)[C@H](C)C[C@H](C)/C=C/C=C/C=C(\C)[C@@H](c2c[nH]c3c(C)cccc23)C[C@@H]2CC[C@@H](C)[C@@](O)(O2)C(=O)C(=O)N2CCCC[C@H]2C(=O)O[C@H]([C@H](C)C[C@@H]2CC[C@@H](O)[C@H](OC)C2)C[C@H](O)[C@H](C)/C=C(\C)[C@H]1O [C16-(S)iRap, C16-(S)7-methylindolerapamycin, reference compound]",effectiveness against all mutants relative to C16-BSrap,[7]; all mutants,significantly less effective than C16-BSrap
"CC(C)C[C@@H](C=O)NC(=O)[C@H](CC(C)C)NC(=O)[C@H](CC(C)C)NC(=O)OCc1ccccc1 [MG132, reference compound] (Cbz-Leu-Leu-Leu-aldehyde)",GSK-3βFRB* stability when stabilization is reversed with FK506 in presence of protease inhibitor,[4],remained stable
